Test system: Plasmodium falciparum
Experiment: OSM: Erythrocyte assay. NF54 with 3H-Hypoxanthine at 72hr time point.
Type: functional, organism-based

EC50 | SMILES
547 nM | O=C(NC1CCc2cc(Cl)ccc21)c1cncc2nnc(-c3ccc(OC(F)F)cc3)n12 (configuration not stated)
10000 nM | Cc1nn(-c2ccc(F)cc2)c(C)c1-c1nnc2cncc(C(=O)Nc3ccnc(C(F)(F)F)c3)n12
10000 nM | Fc1ccc(C2(C(Oc3cncc4nnc(-c5ccc(OC(F)F)cc5)n34)C(F)(F)F)CC2)cc1F (configuration not stated)
6200 nM | Cn1cc2ccc(Oc3cncc4nnc(-c5ccc(OC(F)F)cc5)n34)cc2n1
124 nM | OC(COc1cncc2nnc(-c3ccc(OC(F)F)cc3)n12)c1ccc(F)c(F)c1 (configuration not stated)
4010 nM | [O-][n+]1cc(OCCc2ccc(F)c(F)c2)n2c(-c3ccc(OC(F)F)cc3)nnc2c1
160 nM | Fc1ccc(CCOc2cnc(Cl)c3nnc(-c4ccc(OC(F)F)cc4)n23)cc1F
10000 nM | OCCc1cncc2nnc(-c3ccc(OC(F)F)cc3)n12
8370 nM | OCCC1CNCc2nnc(-c3ccc(OC(F)F)cc3)n21 (configuration not stated)
430 nM | Fc1ccc(N2CC(Oc3cncc4nnc(-c5ccc(OC(F)F)cc5)n34)C2)cc1F
2000 nM | FC(F)Oc1ccc(-c2nnc3cncc(N4CCC(c5ccccc5)C4)n23)cc1 (configuration not stated)
250 nM | O=C(NCc1cccc(Cl)c1)c1cncc2nnc(-c3ccc(OC(F)F)cc3)n12
10000 nM | Fc1ccc(CCOc2cncc3nnc(C4CCOCC4)n23)cc1F
10000 nM | FC(F)Oc1ccc(-c2nnc3n2CCNC3)cc1
10000 nM | CC(=O)N1CCC(c2nnc3cncc(OCCc4ccc(F)c(F)c4)n23)CC1
10000 nM | NCC(=O)N1CCn2c(nnc2-c2ccc(OC(F)F)cc2)C1
10000 nM | O=C(c1cncc2nnc(-c3ccc(OC(F)F)cc3)n12)N1Cc2ccccc2C1
1340 nM | O=C(NCc1ccc(Cl)cc1)c1cncc2nnc(-c3ccc(OC(F)F)cc3)n12
380 nM | O=C(NCc1ccccc1Cl)c1cncc2nnc(-c3ccc(OC(F)F)cc3)n12
10000 nM | O=C(NCC1CCOCC1)c1cncc2nnc(-c3ccc(OC(F)F)cc3)n12
850 nM | Fc1ccc(CCOc2cncc3nnc(Nc4ccc(F)c(F)c4)n23)cc1F
4960 nM | Fc1ccc(OC2CN(c3cncc4nnc(-c5ccc(OC(F)F)cc5)n34)C2)cc1F
2630 nM | Fc1ccc(CCOc2cncc3nnc(N4CCCCC4)n23)cc1F
10000 nM | O=C(c1cncc2nnc(-c3ccc(OC(F)F)cc3)n12)N1CCN(c2ccccn2)CC1
10000 nM | O=C(NCCN1CCOCC1)c1cncc2nnc(-c3ccc(OC(F)F)cc3)n12
10000 nM | O=C(c1cncc2nnc(-c3ccc(OC(F)F)cc3)n12)N1CCOCC1

EC50 | SMILES
1600 nM | C[C@H](NC(=O)c1cncc2nnc(-c3ccc(OC(F)F)cc3)n12)c1ccccc1
10000 nM | O=C(c1cncc2nnc(-c3ccc(OC(F)F)cc3)n12)N1CCCC1
10000 nM | CS(=O)(=O)N1CCN(C(=O)c2cncc3nnc(-c4ccc(OC(F)F)cc4)n23)CC1
1360 nM | C[C@@H](NC(=O)c1cncc2nnc(-c3ccc(OC(F)F)cc3)n12)c1ccccc1
4130 nM | O=c1[nH]cc(OCCc2ccc(F)c(F)c2)n2c(-c3ccc(OC(F)F)cc3)nnc12
10000 nM | O=C(Nc1ccccn1)c1cncc2nnc(-c3ccc(OC(F)F)cc3)n12
3170 nM | O=C(NCCc1ccccc1)c1cncc2nnc(-c3ccc(OC(F)F)cc3)n12
470 nM | Fc1ccc(CCOc2cncc3nnc(N4Cc5ccccc5C4)n23)cc1F
6860 nM | CCN(CC)c1ncc(OCCc2ccc(F)c(F)c2)n2c(-c3ccc(OC(F)F)cc3)nnc12
10000 nM | O=S(=O)(Cc1ccc(C(F)(F)F)cc1)Nc1cncc2nnc(-c3ccc(OC(F)F)cc3)n12
3560 nM | O=C(c1cncc2nnc(-c3ccc(OC(F)F)cc3)n12)N1CCCC1c1ccccc1 (configuration not stated)
1060 nM | CN(Cc1cccc(Cl)c1)C(=O)c1cncc2nnc(-c3ccc(OC(F)F)cc3)n12
280 nM | FC(F)Oc1ccc(-c2nnc3cncc(CCCc4ccccc4)n23)cc1
10000 nM | FC(F)Oc1ccc(-c2nnc3cncc(CCN4CCOCC4)n23)cc1
8760 nM | FC(F)Oc1ccc(-c2nnc3n2C(CCCc2ccccc2)CNC3)cc1 (configuration not stated)
10000 nM | Nc1ncc(OCCc2ccc(F)c(F)c2)n2c(-c3ccc(OC(F)F)cc3)nnc12
10000 nM | FC(F)Oc1ccc(-c2nnc3cncc(CCN4Cc5ccccc5C4)n23)cc1
10000 nM | FC(F)Oc1ccc(-c2nnc3cncc(N4CC(c5ccccc5)C4)n23)cc1
360 nM | Fc1ccc(COCc2cncc3nnc(-c4ccc(OC(F)F)cc4)n23)cc1F
6920 nM | Cc1ncc(OCCc2ccc(F)c(F)c2)n2c(-c3ccc(OC(F)F)cc3)nnc12
180 nM | O=C(Nc1cccc(Cl)c1)c1cncc2nnc(-c3ccc(OC(F)F)cc3)n12
280 nM | O=C(NCc1ccc(F)c(F)c1)c1cncc2nnc(-c3ccc(OC(F)F)cc3)n12
10000 nM | O=C(NCc1cncc2nnc(-c3ccc(OC(F)F)cc3)n12)c1cccc(Cl)c1
2960 nM | FC(F)Oc1ccc(-c2nnc3cncc(Oc4ccc(Cl)cc4)n23)cc1
40 nM | CO[C@@H](COc1cncc2nnc(-c3ccc(C#N)cc3)n12)c1ccc(F)c(F)c1
110 nM | Fc1ccc(CCOc2cncc3ncc(-c4ccc(Cl)cc4)n23)cc1F

EC50 | SMILES
110 nM | FC(F)Oc1ccc(-c2nnc3cncc(CN4Cc5ccccc5C4)n23)cc1
3740 nM | O=C(Nc1ccc(F)cc1)c1cncc2nnc(-c3ccc(OC(F)F)cc3)n12
650 nM | O=C(Nc1ccc(F)c(F)c1)c1cncc2nnc(-c3ccc(OC(F)F)cc3)n12
320 nM | Fc1ccc(CCCc2cncc3nnc(-c4ccc(OC(F)F)cc4)n23)cc1F
5000 nM | O=C(Nc1ccc(Cl)cc1)c1cncc2nnc(-c3ccc(OC(F)F)cc3)n12
2050 nM | Fc1ccc2c(c1)CCN2c1nnc2cncc(OCCc3ccc(F)c(F)c3)n12
830 nM | Fc1ccc(CCOc2cncc3cnc(-c4ccc(Cl)cc4)n23)cc1F
44.1 nM | CN(C)[C@@H](COc1cncc2nnc(-c3ccc(OC(F)F)cc3)n12)c1ccc(F)c(F)c1
483 nM | Fc1ccc(C2(COc3cncc4nnc(-c5ccc(OC(F)F)cc5)n34)COC2)cc1F
16.7 nM | N#Cc1ccc(-c2nnc3cncc(OCC(OC(F)F)c4ccc(F)c(F)c4)n23)cc1 (configuration not stated)
115 nM | FC(F)Oc1ccc(-c2nnc3cncc(Oc4ccc5ccccc5c4)n23)cc1
10000 nM | FC(F)Oc1ccc(-c2nnc3cncc(OCC(F)(F)F)n23)cc1
10000 nM | CN[C@@H](COc1cncc2nnc(-c3ccc(OC(F)F)cc3)n12)c1ccc(F)c(F)c1
383 nM | FC(F)Oc1ccc(-c2nnc3cncc(Oc4ccc(C(F)(F)F)cc4)n23)cc1
455 nM | FC(F)Oc1ccc(-c2nnc3cncc(Oc4ccc(Cl)c(Cl)c4)n23)cc1
191 nM | O=C(Nc1ccc(F)c(Cl)c1)c1cncc2nnc(-c3ccc(OC(F)F)cc3)n12
10000 nM | O=C(c1cncc2nnc(-c3ccc(OC(F)F)cc3)n12)N1CCc2cc(F)ccc21
9640 nM | FC(F)Oc1ccc(-c2nnc3cncc(Nc4ccc(Cl)c(Cl)c4)n23)cc1
3070 nM | FC(F)Oc1ccc(-c2nnc3cncc(Oc4cccc(Cl)c4)n23)cc1
262 nM | Fc1ccc(CCOc2cncc3nnc(-c4ccc(C(F)(F)F)nc4)n23)cc1F
140 nM | O=C(Nc1ccnc(C(F)(F)F)c1)c1cncc2nnc(-c3ccc(OC(F)F)cc3)n12
33.8 nM | Fc1ccc(CCOc2cn3c(-c4ccc(OC(F)F)cc4)nnc3cn2)cc1F
521 nM | Fc1ccc(COc2cn3c(-c4ccc(OC(F)F)cc4)nnc3cn2)cc1F
24.3 nM | OCC(COc1cncc2nnc(-c3ccc(OC(F)F)cc3)n12)c1ccc(F)c(F)c1 (configuration not stated)
10000 nM | Fc1ccc(CNc2cn3c(-c4ccc(OC(F)F)cc4)nnc3cn2)cc1F
613 nM | Fc1ccc(C(COc2cncc3nnc(-c4ccc(OC(F)F)cc4)n23)N2CCOCC2)cc1F (configuration not stated)

EC50 | SMILES
738 nM | CC(C)(C)c1ccc(Oc2cncc3nnc(-c4ccc(OC(F)F)cc4)n23)cc1
2580 nM | FC(F)Oc1ccc(-c2nnc3cncc(Oc4ccc5c(c4)CCCC5)n23)cc1
597 nM | FC(F)Oc1ccc(-c2nnc3cncc(Oc4ccc(Cl)c(C(F)(F)F)c4)n23)cc1
278 nM | N[C@@H](COc1cncc2nnc(-c3ccc(OC(F)F)cc3)n12)c1ccc(F)c(F)c1
570 nM | OC[C@H](Nc1cncc2nnc(-c3ccc(OC(F)F)cc3)n12)c1ccc(F)c(F)c1
6720 nM | Fc1ccc(-c2cnn(-c3cncc4nnc(-c5ccc(OC(F)F)cc5)n34)c2)cc1F
5580 nM | O=C(Nc1ccc(F)cc1Cl)c1cncc2nnc(-c3ccc(OC(F)F)cc3)n12
10000 nM | Fc1ccc(Nc2cn3c(-c4ccc(OC(F)F)cc4)nnc3cn2)cc1F
332 nM | O=C(NCc1cc(Cl)ccc1Cl)c1cncc2nnc(-c3ccc(OC(F)F)cc3)n12
309 nM | O=C(NCc1cccc(C(F)(F)F)c1Cl)c1cncc2nnc(-c3ccc(OC(F)F)cc3)n12
10000 nM | Fc1ccc(Cc2nccn2-c2cncc3nnc(-c4ccc(OC(F)F)cc4)n23)cc1F
10000 nM | Cc1nn(-c2ccc(F)cc2)c(C)c1-c1nnc2cncc(OCC(F)(F)F)n12
263 nM | FC(F)Oc1ccc(-c2nnc3cncc(Oc4ccc(S(F)(F)(F)(F)F)cc4)n23)cc1
3450 nM | Fc1ccc(Oc2cn3c(-c4ccc(OC(F)F)cc4)nnc3cn2)cc1F
10000 nM | Fc1ccc(CCNc2cn3c(-c4ccc(OC(F)F)cc4)nnc3cn2)cc1
10000 nM | Cc1nn(-c2ccc(F)cc2)c(C)c1-c1nnc2cncc(Oc3ccc(Cl)c(Cl)c3)n12
610 nM | Fc1ccc([C@H]2[C@@H](Oc3cncc4nnc(-c5ccc(OC(F)F)cc5)n34)CN2C2CC2)cc1F
1120 nM | O=C1[C@H](Oc2cncc3nnc(-c4ccc(OC(F)F)cc4)n23)[C@H](c2ccc(F)c(F)c2)N1C1CC1
1980 nM | Cn1ccc2cc(Oc3cncc4nnc(-c5ccc(OC(F)F)cc5)n34)ccc21
10000 nM | O=C1[C@@H](Oc2cn3c(-c4ccc(OC(F)F)cc4)nnc3cn2)[C@@H](c2ccc(F)c(F)c2)N1C1CC1
1630 nM | FC(F)Oc1ccc(-c2nnc3cncc(Oc4ccc5ccc(C(F)(F)F)nc5c4)n23)cc1
1930 nM | Cc1noc2cc(Oc3cncc4nnc(-c5ccc(OC(F)F)cc5)n34)ccc12
1820 nM | CC1=CC(C)(C)Oc2cc(Oc3cncc4nnc(-c5ccc(OC(F)F)cc5)n34)ccc21
10000 nM | Cn1ncc2ccc(Oc3cncc4nnc(-c5ccc(OC(F)F)cc5)n34)cc21

From ChEMBL document CHEMBL3137547, “Open Source Malaria Deposition 2. http://malaria.ourexperiment.org”
